Assay results from ChEMBL document CHEMBL3885881, “DrugMatrix”.

Species: Rattus norvegicus
Assay: DrugMatrix - Regimen: Daily Repeat
Assay type: toxicity, organism-based, Sprague-Dawley
Parameters: regimen Daily Repeat, gender Male, age 6-8 weeks
Settings: in vivo, po, route oral GAVAGE, vehicle 100 % WATER; for ABSOLUTE BASOPHIL / ABSOLUTE EOSINOPHIL / ABSOLUTE LYMPHOCYTE / ABSOLUTE MONOCYTE / ABSOLUTE SEGMENTED NEUTROPHIL / BASOPHIL / EOSINOPHIL / ERYTHROCYTE COUNT / HEMATOCRIT / HEMOGLOBIN / LEUKOCYTE COUNT / LYMPHOCYTE / MEAN CORPUSCULAR HEMOGLOBIN / MEAN CORPUSCULAR HEMOGLOBIN CONCENTRATION / MEAN CORPUSCULAR VOLUME / MONOCYTE / NEUTROPHIL / NUCLEATED RED BLOOD CELLS / PLATELET COUNT: tissue Blood; for ALANINE AMINOTRANSFERASE / ALBUMIN / ALKALINE PHOSPHATASE / ASPARTATE AMINOTRANSFERASE / BLOOD UREA NITROGEN / CARBON DIOXIDE / CHLORIDE / CHOLESTEROL / CREATINE PHOSPHOKINASE / CREATININE / GLUCOSE / LACTATE DEHYDROGENASE / LIPASE / PHOSPHORUS / POTASSIUM / SODIUM / TOTAL BILIRUBIN / TOTAL PROTEIN / URIC ACID: tissue Plasma
[1] = 0 mg/kg, 72 h, dose level Control, time 3 day
[2] = 0 mg/kg, 120 h, dose level Control, time 5 day
[3] = 8 mg/kg, 72 h, dose level Low, time 3 day

CCN(C(C)=O)c1cccc(-c2ccnc3c(C#N)cnn23)c1 [ZALEPLON]
ABSOLUTE BASOPHIL [1]: 0 CELLS/uL | ABSOLUTE EOSINOPHIL [1]: 58.83 CELLS/uL | ABSOLUTE LYMPHOCYTE [1]: 11823.5 CELLS/uL | ABSOLUTE MONOCYTE [1]: 169 CELLS/uL | ABSOLUTE SEGMENTED NEUTROPHIL [1]: 815.33 CELLS/uL | BASOPHIL [1]: 0% | EOSINOPHIL [1]: 0.5% | ERYTHROCYTE COUNT [1]: 5.52 x10E6/uL | HEMATOCRIT [1]: 35.77% | HEMOGLOBIN [1]: 14.28 G/DL | LEUKOCYTE COUNT [1]: 12.87 x10E3/uL | LYMPHOCYTE [1]: 91.67% | MEAN CORPUSCULAR HEMOGLOBIN [1]: 25.92 pg | MEAN CORPUSCULAR HEMOGLOBIN CONCENTRATION [1]: 39.95 G/DL | MEAN CORPUSCULAR VOLUME [1]: 64.85 fL | MONOCYTE [1]: 1.33% | NEUTROPHIL [1]: 6.5% | NUCLEATED RED BLOOD CELLS [1]: 0 /100WBC | PLATELET COUNT [1]: 1246.17 x10E3/uL | ALANINE AMINOTRANSFERASE [1]: 66 u/L | ALBUMIN [1]: 4.25 G/DL | ALKALINE PHOSPHATASE [1]: 416 u/L | ASPARTATE AMINOTRANSFERASE [1]: 106.17 u/L | BLOOD UREA NITROGEN [1]: 12.67 mg/dL | CARBON DIOXIDE [1]: 31.83 mmol/L | CHLORIDE [1]: 102.5 MEQ/L | CHOLESTEROL [1]: 69 mg/dL | CREATINE PHOSPHOKINASE [1]: 601.83 u/L | CREATININE [1]: 0.18 mg/dL | GLUCOSE [1]: 154.5 mg/dL | LACTATE DEHYDROGENASE [1]: 301.83 u/L | LIPASE [1]: 11.17 u/L | PHOSPHORUS [1]: 12.08 mg/dL | POTASSIUM [1]: 6.12 MEQ/L | SODIUM [1]: 145.2 MEQ/L | TOTAL BILIRUBIN [1]: 0.17 mg/dL | TOTAL PROTEIN [1]: 6.1 G/DL | URIC ACID [1]: 1.57 mg/dL | ABSOLUTE BASOPHIL [2]: 0 CELLS/uL | ABSOLUTE EOSINOPHIL [2]: 19.33 CELLS/uL | ABSOLUTE LYMPHOCYTE [2]: 12577.83 CELLS/uL | ABSOLUTE MONOCYTE [2]: 106.33 CELLS/uL | ABSOLUTE SEGMENTED NEUTROPHIL [2]: 896.5 CELLS/uL | BASOPHIL [2]: 0% | EOSINOPHIL [2]: 0.17% | ERYTHROCYTE COUNT [2]: 5.84 x10E6/uL | HEMATOCRIT [2]: 36.88% | HEMOGLOBIN [2]: 14.48 G/DL | LEUKOCYTE COUNT [2]: 13.6 x10E3/uL | LYMPHOCYTE [2]: 92.17% | MEAN CORPUSCULAR HEMOGLOBIN [2]: 24.85 pg | MEAN CORPUSCULAR HEMOGLOBIN CONCENTRATION [2]: 39.3 G/DL | MEAN CORPUSCULAR VOLUME [2]: 63.23 fL | MONOCYTE [2]: 0.83% | NEUTROPHIL [2]: 6.83% | NUCLEATED RED BLOOD CELLS [2]: 0 /100WBC | PLATELET COUNT [2]: 1223.5 x10E3/uL | ALANINE AMINOTRANSFERASE [2]: 55.33 u/L | ALBUMIN [2]: 4.08 G/DL | ALKALINE PHOSPHATASE [2]: 355.5 u/L | ASPARTATE AMINOTRANSFERASE [2]: 87.67 u/L | BLOOD UREA NITROGEN [2]: 15.33 mg/dL | CARBON DIOXIDE [2]: 33.83 mmol/L | CHLORIDE [2]: 99.67 MEQ/L | CHOLESTEROL [2]: 72.17 mg/dL | CREATINE PHOSPHOKINASE [2]: 268.33 u/L | CREATININE [2]: 0.15 mg/dL | GLUCOSE [2]: 152.5 mg/dL | LACTATE DEHYDROGENASE [2]: 212.67 u/L | LIPASE [2]: 10.83 u/L | PHOSPHORUS [2]: 11.65 mg/dL | POTASSIUM [2]: 6.73 MEQ/L | SODIUM [2]: 142.43 MEQ/L | TOTAL BILIRUBIN [2]: 0.23 mg/dL | TOTAL PROTEIN [2]: 6.07 G/DL | URIC ACID [2]: 1.7 mg/dL | ABSOLUTE BASOPHIL [3]: 0 CELLS/uL | ABSOLUTE EOSINOPHIL [3]: 0 CELLS/uL | ABSOLUTE LYMPHOCYTE [3]: 15455.33 CELLS/uL | ABSOLUTE MONOCYTE [3]: 295 CELLS/uL | ABSOLUTE SEGMENTED NEUTROPHIL [3]: 1116.33 CELLS/uL | BASOPHIL [3]: 0% | EOSINOPHIL [3]: 0% | ERYTHROCYTE COUNT [3]: 5.86 x10E6/uL | HEMATOCRIT [3]: 37.3% | HEMOGLOBIN [3]: 14.83 G/DL | LEUKOCYTE COUNT [3]: 16.87 x10E3/uL | LYMPHOCYTE [3]: 91.67% | MEAN CORPUSCULAR HEMOGLOBIN [3]: 25.33 pg | MEAN CORPUSCULAR HEMOGLOBIN CONCENTRATION [3]: 39.77 G/DL | MEAN CORPUSCULAR VOLUME [3]: 63.67 fL | MONOCYTE [3]: 1.67% | NEUTROPHIL [3]: 6.67% | NUCLEATED RED BLOOD CELLS [3]: 0 /100WBC | PLATELET COUNT [3]: 1367.67 x10E3/uL | ALANINE AMINOTRANSFERASE [3]: 54.67 u/L | ALBUMIN [3]: 4.17 G/DL | ALKALINE PHOSPHATASE [3]: 303 u/L | ASPARTATE AMINOTRANSFERASE [3]: 88.33 u/L | BLOOD UREA NITROGEN [3]: 12 mg/dL | CARBON DIOXIDE [3]: 32.67 mmol/L | CHLORIDE [3]: 101.67 MEQ/L | CHOLESTEROL [3]: 70.67 mg/dL | CREATINE PHOSPHOKINASE [3]: 534 u/L | CREATININE [3]: 0.2 mg/dL | GLUCOSE [3]: 151 mg/dL | LACTATE DEHYDROGENASE [3]: 218 u/L | LIPASE [3]: 13.67 u/L | PHOSPHORUS [3]: 12.87 mg/dL | POTASSIUM [3]: 6.77 MEQ/L | SODIUM [3]: 145.17 MEQ/L | TOTAL BILIRUBIN [3]: 0.17 mg/dL | TOTAL PROTEIN [3]: 5.9 G/DL | URIC ACID [3]: 1.7 mg/dL
